From patent publication US5891917A, “Certain acrylonitrile-sulfonamide derivatives” (Sugen, Inc., priority 1997, dated 1999)

Assays:
EGFR = biological target: T1, EGFR (Homo sapiens, UniProt P00533); experiment: EGFR Whole Cell Kinase Assay (ELISA); assay type: cell-based; conditions: EGFR/C7 (NIH3T3) cells, 25 nM EGF
T1 construct: expressed in transfected cells; host or cells: NIH3T3 clone C7 (EGFR/C7, Honegger et al.)
From the text: (§1) The following examples illustrate the ability of the exemplary compounds to inhibit receptor tyrosine kinases, such as HER2 and/or EGFR. The following target cells were used for cellular kinase assays: NIH3T3 clone C7 (Honegger et al., supra) engineered to over-express human EGF receptor; NIH3T3 cells engineered to over-express a chimeric receptor containing the EGFR extracellular domain and the HER2 intracellular kinase domain; the human mammary carcinoma line BT474 (ATCC HTB2) expressing HER2; and the human glioblastoma line U1242 that expresses PDGFR-beta. Growth assays were carried out using human mammary epithelial SKBR3 (ATCC HTB30) cells (SKBR3 cells over-express HER2), SKOV3 (ATCC HTB77) human ovarian cancer cell line (SKOV3 cells also over-express HER2), A431 cells (A431 cells over-express EGFR) MCF7 human breast carcinoma cells, MCF7 cells overexpressing the HER2 kinase (MCF7-HER2), NIH3T3 cells, and NIH3T3 cells overexpressing the HER2 kinase (3T3-HER2.
EGFR Whole Cell Kinase Assay
EGFR kinase activity (EGFR-3T3 assay) in whole cells was measured as described below:
A. Coat ELISA plates (Corning, 96 well, Cat. #25805-96) with 05-101 antibody at 0.5 μg per well in PBS, 150 μl final volume/well, and store overnight at 4° C. Coated plates are good for up to 10 days when stored at 4° C.
B. On day of use, remove coating buffer and replace with blocking buffer (5% Carnation Instant NonFat Dry Milk in PBS). Incubate the plate, shaking, at room temperature (about 23° C. to 25° C.) for 30 minutes. Just prior to use, remove blocking buffer and wash plate 4 times with TBST buffer.
A. EGFR/C7 cell line (Honegger, et al., supra) can be used for this assay.
B. Choose dishes having 80-90% confluence for the experiment. Trypsinize cells and stop reaction by adding 10% CS DMEM medium. Suspend cells in DMEM medium (10% CS DMEM medium) and centrifuge once at 1000 rpm, and once at room temperature for 5 minutes.
C. Resuspend cells in seeding medium (DMEM, 0.5% bovine serum), and count the cells using trypan blue. Viability above 90% is acceptable. Seed cells in DMEM medium (0.5% bovine serum) at a density of 10,000 cells per well, 100 μl per well, in a 96 well microtiter plate. Incubate seeded cells in 5% CO2 at 37° C. for about 40 hours.
A. Check seeded cells for contamination using an inverted microscope. Dilute drug stock (10 mg/ml in DMSO) 1:10 in DMEM medium, then transfer 5 μl to a test well for a final drug dilution of 1:200 and a final DMSO concentration of […]. Control wells receive DMSO alone. Incubate in 5% CO2 at 37° C. for one hour.
B. Prepare EGF ligand: dilute stock EGF in DMEM so that upon transfer of 10 μl dilute EGF (1:12 dilution), 25 nM final concentration is attained.
D. After two hours incubation with drug, add prepared EGF ligand to cells, 10 μl per well, to yield a final concentration of 25 nM. Control wells receive DMEM alone. Incubate, shaking, at room temperature, for 5 minutes.
E. Remove drug, EGF, and DMEM. Wash cells twice with PBS. Transfer HNTG* to cells, 100 μl per well. Place on ice for 5 minutes. Meanwhile, remove blocking buffer from other ELISA plate and wash with TBST as described above.
F. With a pipette tip securely fitted to a micropipettor, scrape cells from plate and homogenize cell material by repeatedly aspirating and dispensing the HNTG* lysis buffer. Transfer lysate to a coated, blocked, and washed ELISA plate. Incubate shaking at room temperature for one hour.
G. Remove lysate and wash 4 times with TBST. Transfer freshly diluted anti-Ptyr antibody to ELISA plate at 100 μl per well. Incubate shaking at room temperature for 30 minutes in the presence of the anti-Ptyr antiserum (1:3000 dilution in TBST).
H. Remove the anti-Ptyr antibody and wash 4 times with TBST. Transfer the freshly diluted TAGO 30 anti-rabbit IgG antibody (anti-rabbit IgG antibody: 1:3000 dilution in TBST) to the ELISA plate at 100 μl per well. Incubate shaking at room temperature for 30 minutes. […]

MCF7 cells = experiment: MCF-7 SRB Growth Assay; assay type: cell-based; conditions: Homo sapiens, read-out: Growth Data: MCF7 10% FBS
From the text: as §1
MCF-7 cells are seeded at 2000 cells/well in a 96-well flat bottom plate in normal growth media, which was 10% FBS/RPMI supplemented with 2 mM Glutamine. The plate of cells is incubated for about 24 hours at […] after which it receives an equal volume of compound dilution per well making the total volume per well 200 μl. The compound is prepared at 2 times the desired highest final concentration and serially diluted in the normal growth media in a 96-well round bottom plate and then transferred to plate of cells. DMSO serves as the vector control up to 0.2% as final concentration. The cells are then incubated at 37° C. in a humidified 5% CO2 incubator.
Four days following dosing of compound, the media is 15 discarded and 200 μ/well of ice-cold 10% TCA (Trichloroacetic Acid) is added to fix cells. After 60 minutes at 4° C., the TCA is discarded and the plate is rinsed 5 times with water. The plate is then air-dried and 100 μl/well of 0.4% SRB (Sulforhodamine B from Sigma) 20 in 1% Acetic Acid is added to stain cells for 10 minutes at room temperature. The SRB is discarded and the plate is rinsed 5 times with 1% Acetic Acid. After the plate is completely dried, 100 μl/well of 10 mM Tris-base is added to solubilize the dye. After 5 to 10 minutes, the plate is read on a Dynatech ELISA Plate Reader at dual wavelengths at 570 nm and 630 nm.

T1 sequence (P00533 25-1210): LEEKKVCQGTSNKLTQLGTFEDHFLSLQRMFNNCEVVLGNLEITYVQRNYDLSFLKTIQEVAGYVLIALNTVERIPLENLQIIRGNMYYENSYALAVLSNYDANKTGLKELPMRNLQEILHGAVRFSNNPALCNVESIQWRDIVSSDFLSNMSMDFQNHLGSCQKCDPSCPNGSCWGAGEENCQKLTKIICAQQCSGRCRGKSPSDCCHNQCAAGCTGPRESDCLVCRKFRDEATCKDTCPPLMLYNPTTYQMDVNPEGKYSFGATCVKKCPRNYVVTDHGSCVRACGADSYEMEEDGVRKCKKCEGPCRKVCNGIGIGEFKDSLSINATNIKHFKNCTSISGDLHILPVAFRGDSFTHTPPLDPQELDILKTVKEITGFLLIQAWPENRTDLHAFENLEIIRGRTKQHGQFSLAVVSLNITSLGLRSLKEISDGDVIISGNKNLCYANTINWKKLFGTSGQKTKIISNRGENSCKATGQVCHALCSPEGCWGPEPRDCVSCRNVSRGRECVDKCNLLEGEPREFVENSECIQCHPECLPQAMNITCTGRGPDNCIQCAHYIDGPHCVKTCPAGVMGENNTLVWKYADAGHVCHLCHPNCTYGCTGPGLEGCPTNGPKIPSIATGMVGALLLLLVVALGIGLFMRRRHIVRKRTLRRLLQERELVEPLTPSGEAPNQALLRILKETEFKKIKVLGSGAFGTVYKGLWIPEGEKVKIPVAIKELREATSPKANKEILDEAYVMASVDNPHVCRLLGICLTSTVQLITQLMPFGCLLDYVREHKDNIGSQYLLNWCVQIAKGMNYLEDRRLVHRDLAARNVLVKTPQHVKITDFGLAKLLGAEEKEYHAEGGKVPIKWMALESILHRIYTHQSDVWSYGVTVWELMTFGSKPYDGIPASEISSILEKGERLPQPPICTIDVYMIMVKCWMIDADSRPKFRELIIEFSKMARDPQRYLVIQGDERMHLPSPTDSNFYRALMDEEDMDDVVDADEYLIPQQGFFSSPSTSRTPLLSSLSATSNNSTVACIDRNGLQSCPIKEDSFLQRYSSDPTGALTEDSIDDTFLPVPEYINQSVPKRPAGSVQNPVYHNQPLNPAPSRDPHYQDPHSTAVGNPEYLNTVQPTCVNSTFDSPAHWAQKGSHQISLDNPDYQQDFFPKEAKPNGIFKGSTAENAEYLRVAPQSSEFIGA

| IC50 (EGFR) [µM] | IC50 (MCF7 cells) [µM] | SMILES |
| --- | --- | --- |
| > 100 | 56 | N#C/C(=C\c1ccc(O)cc1Cl)S(=O)(=O)NCCCc1ccccc1 [Compound 734] |
| 58 | 13 | CC(C)c1cc(/C=C(\C#N)S(=O)(=O)NCc2ccccc2)cc(C(C)C)c1O [Compound 732] |
| 79.2 | 17 | CC(C)c1cc(/C=C(\C#N)S(=O)(=O)c2ccsc2)cc(C(C)C)c1O [Compound 738] |
|  | 0.7 | CC(C)(C)c1cc(/C=C(\C#N)S(=O)(=O)Cc2cccc(C(F)(F)F)c2)cc(C(C)(C)C)c1O [Compound 735] |
| < 100 |  | CC(C)c1cc(/C=C(\C#N)S(=O)(=O)/C(C#N)=C/c2cc(C(C)C)c(O)c(C(C)C)c2)cc(C(C)C)c1O [Compound 745] |
| > 100 | 65 | N#C/C(=C\c1ccc(O)cc1Cl)S(=O)(=O)NCc1ccccc1 [Compound 733] |
|  | 55 | CC(C)c1cc(/C=C(\C#N)S(=O)(=O)c2ccccn2)cc(C(C)C)c1O [Compound 747] |
|  | > 100 | Cc1cc(/C=C(\C#N)S(=O)(=O)c2ccccc2)cc(C)c1O [Compound 748] |
| > 100 | 35 | Cc1cc(/C=C(\C#N)S(=O)(=O)Cc2cccc(C(F)(F)F)c2)cc(C)c1O [Compound 739] |
| 73.2 | 12 | CC(C)c1cc(/C=C(\C#N)S(=O)(=O)c2ccccc2)cc(C(C)C)c1O [Compound 731] |
| > 100 | 2 | CC(C)(C)c1cc(/C=C(\C#N)S(=O)(=O)c2cccs2)cc(C(C)(C)C)c1O [Compound 742] |
| > 100 | > 100 | Cc1cc(/C=C(\C#N)S(=O)(=O)c2ccc(F)cc2)cc(C)c1O [Compound 744] |
| 52.7 | 8 | CC(C)c1cc(/C=C(\C#N)S(=O)(=O)c2ccc(F)cc2)cc(C(C)C)c1O [Compound 741, (E)-3-(3,5-Diisopropyl-4-hydroxyphenyl)-2-(4-fluorophenylsulfonyl)acrylonitrile] |
| > 100 | 2 | CC(C)(C)c1cc(/C=C(\C#N)S(=O)(=O)c2ccsc2)cc(C(C)(C)C)c1O [Compound 746] |
| 77 | 16 | CC(C)c1cc(/C=C(\C#N)S(=O)(=O)c2cccs2)cc(C(C)C)c1O [Compound 737] |
| 100 | 8 | CC(C)c1cc(/C=C(\C#N)S(=O)(=O)Cc2cccc(C(F)(F)F)c2)cc(C(C)C)c1O [Compound 736] |
| > 100 |  | N#C/C(=C\c1ccc(O)c(O)c1)S(=O)(=O)c1cccs1 [Compound 743, (E)-3-(3,4-Dihydroxyphenyl)-2-[(thien-2-yl)sulfonyl]acrylonitrile] |
| > 100 | 0.2 | CC(C)(C)c1cc(/C=C(\C#N)S(=O)(=O)c2ccc(F)cc2)cc(C(C)(C)C)c1O [Compound 740] |
